Results published in patent publication US12551451B2, “Compositions and methods for delivering molecules” (SunVax mRNA Therapeutics Inc., priority 2023, dated 2026).

Columns and labels:
[1] = LNP Characteristics (size, PDI, encapsulation efficiency) of LNPs formulated with novel ionizable lipids; type: physicochemical; settings: LNP formulated with the ionizable lipid, DOPE, Cholesterol, DMG-PEG2000
Protocol: LNPs formulated using the novel ionizable lipids of the disclosure or control ionizable lipids MC3 and SM-102 were synthesized by mixing the lipid components of the LNP in ethanol at a predetermined molar ratio (ionizable lipid/DOPE/Cholesterol/DMG-PEG2000=30/15/50/1.5) to prepare an organic phase. Sa-mRNA encoding firefly luciferase (LUC) or green fluorescent protein (GFP) was diluted in 50 mM citrate buffer (pH 4.5, Fisher) to prepare an aqueous phase. The sa-mRNA was stored at −80° C. and was thawed on ice prior to use. The ethanol and aqueous phases were mixed at a 1:3 ratio by pipette with the N/P=4.2/1. The resultant LNPs were purified by ultrafiltration (100,000 cut-off, MilliporeSigma™ Amicon™ Ultra-15 Centrifugal Filter Units) at 4° C. prior to transfection into a cell, such as a T-cell.
LNPs formulated using novel ionizable lipids of the disclosure were synthesized using the procedure described in Example 2 and characterized. Table 4 below show the properties of each LNP formulated using a novel ionizable lipid of the disclosure.

spleen = assay: In vivo Luciferase expression after injection of LNP-encapsulated modified mRNA, IVIS imaging; settings: LNP delivering 10 mg modified mRNA encoding Luciferase; 18 hours post injection; Balb/c mice
Protocol: (§1) LNP formulated using the ionizable lipids of the disclosure were used to deliver modified RNA encoding reporter genes to determine the transfection efficiency of exemplary ionizable lipids of the disclosure in immune cells and organs. Injections of mice with LNP-encapsulated modified mRNA encoding either Luciferases or eGFP were performed. In experiments with payloads encoding Luciferase mRNA, spleen expression was detected, which is an important organ with abundant pan T cells. In experiments with payloads encoding eGFP mRNA, transfection of primary T cells in vivo by FACS analysis was performed.
Balb/c mice were intraperitoneally injected with 10 mg modified mRNA encoding Luciferase, encapsulated by LNPs formulated with P1D4, P51C12, P161F6 ionizable lipids. To detect luminescence, the mice were subsequently injected with 6 mg Luciferin, a substrate of Luciferase and imaged by IVIS five minutes later.

[2] = test system: endogenous CD4, CD8, CD4/CD8 T cells and NK cells; assay: In vivo transfection of T and NK cells with LNP-encapsulated modified mRNA encoding eGFP, FACS of splenocytes; parameters: species or system Balb/c mice; settings: LNP delivering 10 mg modified mRNA encoding eGFP, intravenously, 18 hours after injection
Protocol: as §1
Balb/c mice were intravenously injected with of 10 mg modified mRNA encoding eGFP. The modified mRNA encoding eGFP were delivered using LNPs formulated with P1D4 and P161F6 ionizable lipids in groups of 5 mice. A control group of 5 mice were injected with PBS. Balb/c mice were injected intravenously. The mice were sacrificed 18 hours after injection. Single cell splenocytes were prepared for FACS staining.

SMILES	Avg. Encapsulation Efficiency (EE) % [1]	Avg. PDI [1]	Avg. Size [1]	transfection of the spleen (Luciferase signal) (spleen)	transfection of endogenous CD4, CD8, CD4/CD8 T cells and NK cells [2]
CCCCCCCCCCCCC(CCCCCCCCCC)CN(C(=O)CCC(C)C1CCC2C3CC(O)C4CC(O)CCC4(C)C3CCC12C)C(C(=O)NC12CC3CC(CC(C3)C1)C2)C1CCN(CC)CC1 (stereo not shown) [Lipid P161F6, N-(2-(((1s,3s)-adamantan-1-yl)amino)-1-(1-ethylpiperidin-4-yl)-2-oxoethyl)-N-(2-decyltetradecyl)-4-(3,6-dihydroxy-10,13-dimethylhexadecahydro-1H-cyclopenta[a]phenanthren-17-yl)pentanamide]	87.1%	0.18	215 nm	effectively transfected the spleen	could transfect endogenous CD4, CD8, CD4/CD8 T cells as well as NK cell
CCCCCCCCCCCCCC(=O)N(CC(CCCCCCCC)CCCCCCCCCC)C(C(=O)NCC(=O)OCC)C1CCN(CC)CC1 (stereo not shown) [Lipid P1D4, Ethyl (2-(1-ethylpiperidin-4-yl)-2-(N-(2-octyldodecyl)tetradecanamido)acetyl)glycinate]	92.7%	0.17	170.4 nm	effectively transfected the spleen	could transfect endogenous CD4, CD8, CD4/CD8 T cells as well as NK cell
CCCCCCCCCCCC(=O)N(C(CCCCCCCCCCC)CCCCCCCCCCC)C(CC1CCN(C)CC1)C(=O)NC1CCCCCC1 (stereo not shown) [Lipid P40C11, N-(1-(cycloheptylamino)-3-(1-methylpiperidin-4-yl)-1-oxopropan-2-yl)-N-(tricosan-12-yl)dodecanamide]	96.6%	0.14	189.3 nm		

Second part, led by results:

Avg. Encapsulation Efficiency (EE) % [1]	Avg. PDI [1]	Avg. Size [1]	SMILES	transfection of the spleen (Luciferase signal) (spleen)	transfection of endogenous CD4, CD8, CD4/CD8 T cells and NK cells [2]
92.9%	0.10	219 nm	CCCCCCCC/C=C\CCCCCCCC(=O)N(C(CCCCCCC)CCCCCCC)C(C(=O)NC1CCCCCC1)C1CCN(CC)CC1 (stereo not shown) [Lipid P149A1, N-(2-(cycloheptylamino)-1-(1-ethylpiperidin-4-yl)-2-oxoethyl)-N-(pentadecan-8-yl)oleamide]		
86.8%	0.07	86.8 nm	CCCCCCCCCCCCOC(=O)CCC(=O)N(C(CCCCCCCCC)CCCCCCCCC)C(C(=O)NC1CCCCCC1)C1CCN(CC)CC1 (stereo not shown) [Lipid P153C3, dodecyl 4-((2-(cycloheptylamino)-1-(1-ethylpiperidin-4-yl)-2-oxoethyl)(nonadecan-10-yl)amino)-4-oxobutanoate]		
95.8%	0.13	174 nm	CCCCCCCCCCCCOC(=O)CCC(=O)N(CC(CCCCCCCC)CCCCCCCCCC)C(C(=O)NC1CCCCCC1)C1CCCN(CC)C1 (stereo not shown) [Lipid P159C10, dodecyl 4-((2-(cycloheptylamino)-1-(1-ethylpiperidin-3-yl)-2-oxoethyl)(2-octyldodecyl)amino)-4-oxobutanoate]		
